Assay results: patent US7045502B2, “Use of melagatran for the manufacture of a medicament for the treatment of Type 1 diabetes mellitus” (AstraZeneca AB, priority 2002, dated 2006)
“Also recorded” adds a separate entry of the source.

Key:
complement system = test: Activation of complement in serum in wells of microtiter plates; type: biochemical; settings: human serum, no islets, 0 to 10 μM, 30 min, 37° C.
Description: The direct effect of melagatran on the complement system was studied using a method in which serum was incubated in the wells of microtiter plates (Nilsson et al, Mol. Immunol., 30, 211 (1993)). Serum (100 μL) was added to each well of a 96-well microtiter plate together with melagatran at a final concentration of 0, 0.4, 1, 4, or 10 μM. After a 30-min incubation at 37° C., the serum was transferred to tubes containing EDTA (final concentration, 10 mM). These samples were stored at −70° C. before analysis of the complement fragment C3a (see below). In order to detect bound C3 fragments, the wells of the microtiter plates were washed with PBS containing 0.05% (v/v) TWEEN 20 and incubated with 100 μL of horseradish peroxidase (HRP)-conjugated anti-C3c (DAKO. AS, Glostrup, Denmark) for 60 min at 37° C. The binding of antibody was detected by the addition of 1,2-phenylendiamine dihydrochloride (Fluka, Switzerland), and the staining was monitored at 492 nm.
EDTA-plasma was analyzed as previously described (Nilsson Ekdahl et al, Scand. J. Immunol., 35, 85 (1992)). Monoclonal antibody 4SD17.3 was used as capture antibody. Bound C3a was detected with biotinylated polyclonal anti-C3a followed by HRP-conjugated streptavidin (Amersham, Buckinghamshire, UK). Zymosan-activated serum, calibrated against a solution of purified C3a, served as a standard, and the values are given as ng/mL.

[1] = system: human islets in ABO-compatible blood (IBMIR); test: Tubing loop model: human islets perfused with fresh ABO-compatible human blood (IBMIR); type: cell-based
Excerpt: (§1) Pancreases were obtained from cadaver donors after consent was obtained either from the organ donor registry or from relatives. The organs were obtained from three female and two male normoglycemic donors (aged 59–85 years, three with blood group 0 and two with blood group A). The islets were isolated at the Division for Clinical Immunology at the University of Uppsala using a modification of previously described semiautomated digestion-filtration methods (Brandhorst et al, Cell Transplant., 7, 489 (1998) and Ricordi et al, Diabetes, 37, 413 (1988)). This isolation procedure was followed by further purification on a continuous density gradient in a refrigerated COBE 2991 centrifuge (COBE Blood Component Technology, Lakewood, Colo., USA). The islets were placed in untreated culture flasks and maintained in suspension culture at 37° C. (5% CO2) for. 1 to 5 days. The culture medium (CMRL 1066; ICN Biomedicals, Costa Mesa, Calif.) was changed every other day. The volume and purity of the islets were determined by microscopic sizing on a grid after staining with diphenylthiocarbazone. The purity of the islet preparations used in this study ranged from 40% and 95% (70±6.3%) (amount of endocrine compared to exocrine/duct tissue in the preparation; mean ±SD). Viability was assessed in terms of insulin secretion in response to a glucose challenge in a dynamic perfusion system (in 1.67 mmol/L glucose, then in 16.7 mmol/L, and finally back to 1.67 mmol/L).
All materials that came in contact with whole blood were furnished with a Corline heparin surface (Corline, Uppsala, Sweden) according to the manufacturer's recommendation (see J. Clin. Immunol., 16, 222 (1996)). The surface concentration of heparin was 0.5 μg/cm^2, corresponding to approximately 0.1 U/cm^2, with an antithrombin binding capacity of 2–4 pmol/cm^2.
Fresh human blood, obtained from healthy volunteers who had received no medication for at least 14 days, was collected in surface-heparinized 60-mL syringes (18 gauge, Microlance; Becton Dickinson, Franklin Lakes, N.J.). The cannulae of the syringes were connected to surface-heparinized-silicon tubing. During sampling, the syringes were rotated continuously.
(§2) A modification of the model previously described was used (see Bennet et al, Diabetes, 48, 1907 (1999), Gong et al, J. Clin. Immunol., 16, 222 (1996) and Larsson et al, Immunophamnacology, 38, 119 (1997)). This device consisted of loops made of PVC (diameter, 6.3 mm; length, 390 mm) whose inner surface was furnished with immobilized heparin. The tubing was held together with a specially designed heparinized connector. A circular loop was formed when the ends of the connector were tightly pushed into the lumen of the tubing ends. A rocking apparatus, placed in a 37° C. incubator, was used to generate blood flow inside the loops. The loops were rocked at a setting that prevented the blood from coming into contact with the connectors. Up to twelve devices could be rocked at the same time. Ten 60-min islet experiments were performed, with islets isolated from five different donors. Melagatran (Astraeneca R&D Mölndal, Sweden), dissolved in 5 mM citrate buffer containing 0.15 M NaCl, pH 5.5, was tested at 0, 0.4 μM, 1 μM, 4 μM, and 10 μM. For each experiment, two loops of fresh human blood without islets, one containing CMRL 1066 (GibcoRBL, USA) and one containing 10 μM melagatran, were included as controls. Fresh ABO-compatible human blood from the same donor (5 mL) was added to each loop. The loops were placed on the rocking device for a 10-min preincubation with melagatran or citrate buffer. Thereafter, the loops were opened, and 150 μL of CMRL 1066, with or without 4 μL of islets (approximately 4,000 IEQ), was added to the loops, followed by another 60-min incubation on the rocking device at 37° C. Blood glucose levels were measured with a glucometer (Glucometer Elite; Bayer Diagnostics, Leverkusen, Germany) before the perfusion. […]

human islets [2] = test: Islet perfusion system (islet function, insulin secretion); type: cell-based; settings: 10 μM melagatran
Excerpt: as §1, with “The purity of the islet preparations used in this study ranged from 40% and 95% (70±6.3%) (amount of endocrine compared to exocrine/duct tissue in the preparation; mean ±SD).” left out, “mmol/L). […]” for “mmol/L).”

human islets [3] = test: Immunohistochemical staining of human islets after perfusion in the tubing loop model; type: cell-based; settings: 10 μM melagatran
Excerpt: as §2, with “perfusion. After every perfusion the loop contents were filtered through 70 μm-diameter filters (Filcons, Cuptype; DAKO, Denmark). Both macroscopic blood clots and tissue recovered on the filters were frozen in liquid nitrogen for immunohistochemical staining. For immunohistochemical comparison, non-perfused islets were also frozen and stained by the same procedure.” for “perfusion.”

[4] = islets, 10 μM melagatran, 60 min perifusion with ABO-compatible blood, mean ± SEM, n=10
[5] = islets, 10 μM melagatran, 60 min perifusion with ABO-compatible blood, plasma, mean ± SEM, n=10

N=C(N)c1ccc(CNC(=O)[C@@H]2CCN2C(=O)[C@H](NCC(=O)O)C2CCCCC2)cc1 [melagatran, HOOC—CH2—(R)Cgl-Aze-Pab-H]
Binding of C3 fragments to the polystyrene surface (complement system): no effect | Generation of C3a (complement system): no effect | FXIa-AT versus medium control ([1]; 4 μM melagatran, FIG. 1B): decreased to nearly the same level as the medium control | TAT versus medium control ([1]; 4 μM melagatran, FIG. 1B): decreased to nearly the same level as the medium control | Cell consumption and cascade system activation ([1]; 0.4 to 10 μM, 60 min): diminished cell consumption and cascade system activation in a dose-dependent manner | Release of β-TG ([1]; at ≧4 μM, FIG. 1A): normalized | Inhibition of prothrombin fragment 1+2 formation ([1]; compared with 4 μM needed for TAT and FXIa-AT, FIG. 1B): required higher doses | Inhibition of IBMIR (overall) ([1]; in vitro): almost completely inhibits IBMIR; also recorded: abrogated IBMIR | Granulocytes [1, 4]: 3.7 ± 0.3 ×10^9/L | Lymphocytes [1, 4]: 2.0 ± 0.1 ×10^9/L | Monocytes [1, 4]: 0.6 ± 0.1 ×10^9/L | Platelets [1, 4]: 170 ± 8.2 ×10^9/L | C3a [1, 5]: 510 ± 50 ng/mL | FXIa-AT [1, 5]: 0.9 ± 0.6 µmol/L | Insulin [1, 5]: 1500 ± 350 mU/L | Prothrombin F1 + 2 [1, 5]: 110 ± 28 nmol/L | TAT [1, 5]: 890 ± 160 µg/L | sC5b-9 [1, 5]: 140 ± 17.0 AU/mL | β-TG [1, 5]: 1300 ± 200 IU/mL | Complement activation product C3a ([1]; tubing loop with islets, 0 to 10 μM, FIG. 2): inhibited | Concentration at which an effect on most parameters was already observed ([1]; tubing loop, 60 min): 0.4 µM | Concentration at which cell counts were fully restored ([1]; tubing loop, 60 min, FIGS. 1A, 1C): ≥ 4 µM | Insulin release on perfusion of islets (human islets [2]): did not induce insulin release | Subsequent glucose stimulation of islets (human islets [2]; glucose 16.7 mmol/L): normal | Clot formation around islets (human islets [3]; 60 min perfusion with fresh human blood): no signs of clot formation | CD11b+ cells penetrated into the islets (human islets [3]; 60 min perfusion, anti-CD11b staining): only a few | CD41+ platelets surrounding the islet surface (human islets [3]; 60 min perfusion, anti-CD41a staining): almost no
